Results from paper PMC8957246, “Synthesis and diverse biological activity profile of triethylammonium isatin-3-hydrazones” (ADMET & DMPK, 2022).

What was measured:
Assay type in all cases: cell-based
[1] = test system: Phytophthora cactorum VKM F-985; assay: Fungicidal activity, radial growth inhibition, P. cactorum
Method in brief: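 Compound solutions mixed into molten GPY agar (~60 °C) at various concentrations; plates centre-inoculated with a 5-mm mycelial block from 10-day cultures and incubated at 27 °C until control plates filled (~12 days). Inhibition is the % decrease in colony radial growth versus untreated control; EC50 = 50C/I.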

[2] = test system: Staphylococcus aureus ATCC 6538P FDA 209P; assay: Antimicrobial activity, serial dilution (MIC/MBC), Sa; conditions: Staphylococcus aureus
[3] = test system: Enterococcus faecalis ATCC 29212; assay: Antimicrobial activity, serial dilution (MIC/MBC), Ef; conditions: ATCC29212

CC[N+](CC)(CC)CC(=O)N/N=C1\C(=O)N(Cc2cc(C(C)(C)C)c(O)c(C(C)(C)C)c2)c2ccccc21 [Compound 3a, 2-(2-(1-(3,5-Di-tert-butyl-4-hydroxybenzyl)-2-oxoindolin-3-ylidene)hydrazinyl)-N,N,N-triethyl-2-oxoethanammonium bromide]
Inhibition value, I (%) ([1]; C 3.01 μg/mL, age of the fungus 3 days): 4%
Inhibition value, I (%) ([1]; C 3.01 μg/mL, age of the fungus 5 days): 9%
Inhibition value, I (%) ([1]; C 3.01 μg/mL, age of the fungus 7 days): 15%
Inhibition value, I (%) ([1]; C 3.01 μg/mL, age of the fungus 9 days): 1%
Inhibition value, I (%) ([1]; C 3.01 μg/mL, age of the fungus 12 days): 0%
Inhibition value, I (%) ([1]; C 6.02 μg/mL, age of the fungus 3 days): 13%
Inhibition value, I (%) ([1]; C 6.02 μg/mL, age of the fungus 5 days): 21%
Inhibition value, I (%) ([1]; C 6.02 μg/mL, age of the fungus 7 days): 22%
Inhibition value, I (%) ([1]; C 6.02 μg/mL, age of the fungus 9 days): 4%
Inhibition value, I (%) ([1]; C 6.02 μg/mL, age of the fungus 12 days): 5%
Inhibition value, I (%) ([1]; C 9.03 μg/mL, age of the fungus 3 days): 17%
Inhibition value, I (%) ([1]; C 9.03 μg/mL, age of the fungus 5 days): 22%
Inhibition value, I (%) ([1]; C 9.03 μg/mL, age of the fungus 7 days): 25%
Inhibition value, I (%) ([1]; C 9.03 μg/mL, age of the fungus 9 days): 4%
Inhibition value, I (%) ([1]; C 9.03 μg/mL, age of the fungus 12 days): 5%
Inhibition value, I (%) ([1]; C 12.04 μg/mL, age of the fungus 3 days): 40%
Inhibition value, I (%) ([1]; C 12.04 μg/mL, age of the fungus 5 days): 47%
Inhibition value, I (%) ([1]; C 12.04 μg/mL, age of the fungus 7 days): 49%
Inhibition value, I (%) ([1]; C 12.04 μg/mL, age of the fungus 9 days): 41%
Inhibition value, I (%) ([1]; C 12.04 μg/mL, age of the fungus 12 days): 26%
EC50 ([1]; Phytophthora cactorum, 168 h, day 7, EC50 = 50C/I, read-out: EC50, μg/mL at day 7): 10 µg/mL
MIC [2]: 6.5 ± 0.5 µM
MBC ([2]; read-out: MBC (converted)): 13 µM
MBC [3]: > 500 µM
MIC [3]: > 500 µM
